Laboratory results reported in BindingDB's records for PubMed 2795469 (Ciba-Geigy, 1989).

Target: Adenosine receptor A2a (Rattus norvegicus, UniProt P30543)
Sequence (P30543 whole entry): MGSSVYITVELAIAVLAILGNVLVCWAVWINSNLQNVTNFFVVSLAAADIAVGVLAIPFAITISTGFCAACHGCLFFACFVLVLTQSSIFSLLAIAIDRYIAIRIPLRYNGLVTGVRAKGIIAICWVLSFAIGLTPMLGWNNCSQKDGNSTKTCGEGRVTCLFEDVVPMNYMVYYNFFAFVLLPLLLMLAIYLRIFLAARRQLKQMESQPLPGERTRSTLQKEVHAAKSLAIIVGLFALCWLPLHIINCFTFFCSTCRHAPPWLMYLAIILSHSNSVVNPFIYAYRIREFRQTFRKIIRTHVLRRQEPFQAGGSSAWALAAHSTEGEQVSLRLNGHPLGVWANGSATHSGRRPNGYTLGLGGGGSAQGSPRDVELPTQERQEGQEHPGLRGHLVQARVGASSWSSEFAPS

Nc1nc(Nc2ccccc2)nc2c1ncn2[C@@H]1O[C@H](CO)[C@H](O)C1O (stereo partly specified) [(CV 1808) 2-(6-Amino-2-phenylamino-purin-9-yl)-5-hydroxymethyl-tetrahydro-furan-3,4-diol]
Ki: 115 nM
